Two substances from patent US20250076312A1, “BIOMARKERS FOR THE TREATMENT OF INTERSTITIAL LUNG DISEASE” (Lung Therapeutics, LLC, priority 2021, published 2025) can be followed below.

Holding throughout (format): cell-based, human
One data set concerns LDH activity. The procedure: PCLSs were either untreated or treated with CSP-7 (10 μM or 100 μM), control peptide (CP, 100 μM), TGFβ (2 ng/mL), or pirfenidone (Pirf, 500 μM) and nintedanib (Nin, 100 nM). LDH activity was measured in the supernatant of IPF PCLSs on day 2 (left panel) or day 4 (right panel) following treatment. […] LDH activity was measured in the supernatant of IPF PCLSs on day 2 (left panel) or day 4 (right panel) following treatment.
LDH activity was also examined in the supernatants of IPF PCLSs either untreated (UT) or treated with CSP-7 (10 μM or 100 μM), control peptide (CP, 100 μM), TGFβ (2 ng/mL), or pirfenidone (Pirf, 500 μM) and nintedanib (Nin, 100 nM). LDH activity was measured using an LDH assay (Sigma-Aldrich, Cat No MAK066).

In data set [1] the test system is CXCL7. Put plainly: CXCL7 ELISA in supernatant of IPF lung macrophages. Conditions: FIG. 14. The text has this: (§1) Lung macrophages were either left untreated or treated with Var55. Each line represents a biological replicate of lung macrophages from an individual control subject (triangles) or an individual with IPF (circles).
(§2) Lung macrophages were collected from humans with IPF or healthy controls and cultured in vitro. Lung macrophages were either left untreated or treated with Var55. Following treatment, supernatants from the lung macrophage cultures were collected and analyzed for CXCL7 expression by ELISA.
In general terms: An ELISA detects its analyte on a solid surface through an enzyme-linked reagent.

Data set [2] deals with pSMAD2/3. In words: SMAD2/3 phosphorylation in IPF epithelial cells. Conditions: 100 μM, compared to DMEM control, FIG. 7B. The procedure: (§3) IPF fibroblasts were treated with DMEM, 1% DMSO vehicle, CSP-7 (10 μM), Var55 (10 μM), pirfenidone (500 μM), or nintedanib (100 nM). SMAD2/3 phosphorylation was determined by Western blot 24 hours following treatment. […] IPF epithelial cells were treated with DMEM (control), Var55 (100 μM), nintedanib (100 nM), control peptide 1 (CP1, 100 μM), or control peptide 2 (CP2, 100 μM). SMAD2/3 phosphorylation was determined by Western blot 24 hours following treatment. Phosphorylated SMAD2/3 protein levels were determined by normalizing to total SMAD2/3 protein (FIG. 7A and FIG. 7B).
Additional experiments were performed to determine whether phosphorylation of SMAD2/3 could be used as a biomarker associated with Var55 treatment. Epithelial cells from IPF patients were treated with DMEM (control), Var55 (100 μM), nintedanib (100 nM), control peptide 1 (CP1, 100 μM), or control peptide 2 (CP2, 100 μM). SMAD2/3 phosphorylation was measured in […] by a multiplex assay or Western blot analysis and phosphorylated SMAD2/3 was normalized to total SMAD2/3 protein.

Data set [3] concerns CXCL7. In words: CXCL7 ELISA in supernatant of healthy control lung macrophages. Conditions: FIG. 14.
Excerpt: as §1, §2

The subject of data set [4] is pSMAD2/3. Put plainly: SMAD2/3 phosphorylation in IPF fibroblasts. The note with it: 10 μM, compared to 1% DMSO vehicle or DMEM controls, FIG. 7A. The procedure: as §3, with “7B). Primary lung fibroblasts from IPF patients were treated with 1% DMSO vehicle, CSP-7 (10 μM), Var55 (10 μM), pirfenidone (500 μM), or nintedanib (100 nM). SMAD2/3 phosphorylation was measured in IPF fibroblasts by a multiplex assay or Western blot analysis and phosphorylated SMAD2/3 was normalized to total SMAD2/3 protein.” for “7B).”

Square brackets hold non-standard residues; d marks the D form. Ends that are not written are not given here.

Turning to FTTFTVT [CSP-7, FTTFTVT], the “LDH activity in PCLS supernatant” value in the data set on LDH activity is given as “slight reduction”.

On to “Ac-aaEGKASFTTFTVTKGSaa-NH2 (Ac-[dA][dA]EGKASFTTFTVTKGS[dA][dA]-NH2; SMILES CC(=O)N[C@H](C)C(=O)N[C@H](C)C(=O)N[C@@H](CCC(=O)O)C(=O)NCC(=O)N[C@@H](CCCCN)C(=O)N[C@@H](C)C(=O)N[C@@H](CO)C(=O)N[C@@H](Cc1ccccc1)C(=O)N[C@H](C(=O)N[C@H](C(=O)N[C@@H](Cc1ccccc1)C(=O)N[C@H](C(=O)N[C@H](C(=O)N[C@H](C(=O)N[C@@H](CCCCN)C(=O)NCC(=O)N[C@@H](CO)C(=O)N[C@H](C)C(=O)N[C@H](C)C(N)=O)[C@@H](C)O)C(C)C)[C@@H](C)O)[C@@H](C)O)[C@@H](C)O) [Var55]”, for which the “CXCL7 in the supernatant” value in the data set on CXCL7 [1] and in the data set with CXCL7 [3] was “significant reduction” throughout. Besides, the “phosphorylation of SMAD2/3 normalized to total SMAD2/3” value in the data set with pSMAD2/3 [2] was “reduced phosphorylation”; with pSMAD2/3 [4], “no difference”.
